Read-outs that look alike come from different tables or passages of the source.
How the values were obtained:
BT-474 xenograft tumors = test system: BT-474 xenograft tumors
Description: Treatments began on day 1. […] All treatments were freshly prepared and given via intravenous tail vein injection. Injections were standardized at 150 μl per 20 g body weight of mice. […] Tumor sizes were recorded three times a week using caliper measurements (length×width2/2) and health of the animals was continuously monitored. Animals were euthanized when tumor volumes exceeded 1000 mm^3. Six weeks after beginning of the treatment, animals were euthanized by CO2 asphyxiation.

[1] = Plasma pharmacokinetics of free CPT in mice (comparison); format: in vivo; conditions: after 8 h, CPT alone at 10 mg/kg, CD2F1 mice
Description: Free CPT injected at 10 mg/kg into CD2F1 mice is shown as comparison. […] (B) Plasma concentration of unconjugated CPT as a function of time.

[2] = CPT 8 mg/kg i.v. once per week for 3 weeks, Nbegin 8
[3] = Irinotecan 80 mg/kg i.v. once per week for 3 weeks, Nbegin 8

Row | Compound | Tumor inhibition compared to control group (BT-474 xenograft tumors; CPT 8 mg/kg i.v. once per week for 3 weeks) | NNTRD (number of non-treatment related death) (BT-474 xenograft tumors; [2]) | NTRD (number of treatment related death) (BT-474 xenograft tumors; [2]) | Nend (number of animals surviving to end of study) (BT-474 xenograft tumors; [2]) | Injected dose remaining in circulation [1] [%] | Tumor inhibition compared to control group (BT-474 xenograft tumors; Irinotecan 80 mg/kg i.v. once per week for 3 weeks) | NNTRD (number of non-treatment related death) (BT-474 xenograft tumors; [3]) | NTRD (number of treatment related death) (BT-474 xenograft tumors; [3]) | Nend (number of animals surviving to end of study) (BT-474 xenograft tumors; [3]) | Neuthan (number of animals euthanized due to exceeding tumor size limit of 1000 mm^3) (BT-474 xenograft tumors; [3]) | Nreg to zero (number of animals with tumors regressed to zero at the end of study) (BT-474 xenograft tumors; [3])
1 | CC[C@@]1(O)C(=O)OCc2c1cc1n(c2=O)Cc2cc3ccccc3nc2-1 [CPT, Camptothecin] | no tumor inhibition | 0 | 4 | 8/0 | 0.01 | – | – | – | – | – | –
2 | CCc1c2c(nc3ccc(OC(=O)N4CCC(N5CCCCC5)CC4)cc13)-c1cc3c(c(=O)n1C2)COC(=O)[C@]3(O)CC [Irinotecan] | – | – | – | – | – | non-significant tumor inhibition | 0 | 1 | 8/7 | 0 | 0
